Where “and” joins values, the source holds several entries; their conditions need not be identical. Identical values can stand only once.
Columns and labels:
[1] = Stability of aqueous solution of AST-2660-D8-sodium salt by 31P-NMR with HMPA as internal standard; format: physicochemical
Protocol: This example is to study the stability of the sample solution by detecting the content of the aqueous solution of AST-2660-D8-sodium salt: ^31P-NMR was used for detection, and the content of the aqueous solution of AST-2660-D8-sodium salt was characterized by comparing the area ratio of ^31peak of HMPA as an internal standard to that of ^31P peak of AST-2660-D8 sodium salt within 48 hours, thereby determining whether the mass of the sample solution was reduced as a result of degradation.
^31P-NMR of the samples was run on an NMR instrument.
HMPA (21.8 mg, 0.1217 mmol) was dissolved in water (2.20 mL), wherein the total mass was […], and the concentration of HMPA was 5.72×10^−5 mmol/mg. A solution of AST-2660-D8-sodium salt (588 mg, about 0.5 mL) and a solution of HMPA (293 mg, 1.676×10^−2 mmol) were mixed together as samples for 31 P-NMR analysis under −20° C. storage conditions at different times. The ratio of integrated peak area of the nuclear magnetic peak (about 29.874 ppm) for the corresponding HMPA to that of the nuclear magnetic peak (about 24.491 ppm) for AST-2660-D8-sodium salt in the nuclear magnetic spectrum was calculated, and the integrated peak of the nuclear magnetic peak for HMPA was set as 1.
According to the same operation, a sample with another concentration was formulated for detection, and ^31P-NMR analysis was performed under −78° C. storage conditions at different times. […]

[2] = Stability of AST-2660 and AST-2660-D8 methanol stock/working solutions (LC-MS/MS peak area, stored vs fresh solution); format: physicochemical
Protocol: The relevant parameters of the LC-MS/MS experimental method are provided.
AST-2660 (prepared by referring to Example 1 and selecting non-deuterated raw materials) standard stock solution (methanol solution with a concentration of 1.0 mg/ml): an appropriate amount of AST-2660 was taken, added with an appropriate amount of methanol, diluted and mixed thoroughly to obtain 1.0 mg/ml of solution.
A 100 μL standard stock solution of AST-2660 was taken, added with 9900 μL of methanol, diluted and mixed thoroughly to obtain 10.0 μg/ml of calibration standard working solution.
[…] A 20 μL of internal standard stock solution of AST-2660-D8 was taken, added with 9980 μL methanol, diluted and mixed thoroughly to obtain 100 ng/ml of internal standard working solution.
It can be seen from Table 10 that the accuracy of the stability of the AST-2660 working solution and the internal standard AST-2660-D8 working solution was within ±8.1%, and the precision was less than 5.5%. Stability analysis criteria: the difference between the storage stable solution and the freshly prepared solution must be within ±10.0%, and the CV of each replicate experiment must not be greater than 10.0%. Therefore, both AST-2660 and AST-2660-D8 (internal standard) working solutions had good stability and met the requirements under various storage conditions.

[3] = 100 ng/ml methanol solution, fresh stock solution, t = 0
[4] = 100 ng/ml methanol solution, working solution stored at −70° C., t = 26 days
[5] = 1 mg/ml methanol solution, fresh stock solution, t = 0
[6] = 1 mg/ml methanol solution, stock solution stored at −70° C., t = 26 days

## [2H]C1([2H])N(P(=O)([O-])N2C([2H])([2H])C2([2H])[2H])C1([2H])[2H].[Na+] [AST-2660-D8 sodium salt]
[1]; aqueous solution after storage at −20° C. for 6 months
  concentration of AST-2660-D8 sodium salt: 1370 µg/mL
[1]; aqueous solution after storage at −78° C. for 6 months
  concentration of AST-2660-D8 sodium salt: 1710 µg/mL
[1]; aqueous solution, 6 months of storage at −20° C.
  decrease of concentration: 27.5%
[1]; aqueous solution, 6 months of storage at −78° C.
  decrease of concentration: 9.5%
[1]; aqueous solution, day 0
  concentration of AST-2660-D8 sodium salt: 1890 µg/mL
[1]; stored at −20 to −78° C. for 48 hours (2 days)
  stability of solution (in words): stable
[2]; 100 ng/ml AST-2660-D8 methanol working solution, 26 days at −70° C.
  RE (% difference, peak area stock vs fresh solution): RE: 0.9%
[2]; [3]
  Peak area (AST-2660-D8), Mean value: 3282130
  Peak area (AST-2660-D8), single replicates: 3253860 and 3323720 and 3204960 and 3285390 and 3314390 and 3310460
[2]; [4]
  Deviation % over fresh stock solution: 0.9%
  Peak area (AST-2660-D8), Mean value: 3311013
  Peak area (AST-2660-D8), single replicates: 3289570 and 3332520 and 3294750 and 3307750 and 3306110 and 3335380
[2]; [5]
  Peak area (AST-2660-D8), Mean value: 548278.5
  Peak area (AST-2660-D8), single replicates: 574450 and 589227 and 535059 and 530296 and 537317 and 523322
[2]; [6]
  Deviation % over fresh stock solution: −2.0%
  Peak area (AST-2660-D8), Mean value: 537342.5
  Peak area (AST-2660-D8), single replicates: 539154 and 532283 and 520321 and 550350 and 532469 and 549478
[2]; stored for 26 days at −70° C.
  stability of methanol solution (in words): strong stability

Reference: US20240140970A1, “A […], AND PREPARATION METHOD AND USE THEREOF” (ASCENTAWITS PHARMACEUTICALS, LTD., priority 2021, published 2024)
